For 6 molecules, Activity and MIC results are on record in ChEMBL document CHEMBL1159197, “Novel bromopyrrole alkaloids from the sponge Agelas dispar” (1998).

The subject of test [1] is Aspergillus niger. The test can be described thus: Antimicrobial activity against Aspergillus niger. The test is classed as functional, organism-based.
The test system of test [2] is Staphylococcus aureus. The test can be described thus: Antimicrobial activity against Staphylococcus aureus ATCC 6538. The format is functional.
Test [3] concerns Bacillus subtilis. The test can be described thus: Antimicrobial activity against Bacillus subtilis ATCC 6633. The format is functional.

Structures are written as SMILES. ≈ marks a conversion by molar mass, not a printed value. Calls of active or inactive are those of the source. The calls are words filed in the database; no cut-off is given here.

Consider `C[N+]1=CNC[C@]1(C)C[C@H](NC(=O)c1cc(Br)c[nH]1)C(=O)[O-]`, for which, in test [1], the result was Active.
For the molecule `Cn1c(/C=C\CNC(=O)c2cc(Br)c[nH]2)cnc1N` [KERAMADINE], the MIC – broadly, the least concentration at which growth counts as inhibited – in test [2] was 35 µg/mL (≈ 108 µM); in test [3], 40 µg/mL (≈ 123 µM).
In the case of `C[C@]1(C[C@@H](NC(=O)c2cc(Br)c[nH]2)C(=O)O)CNC=N1`, the outcome in test [2] and in test [3] was inactive. The outcome in test [1] was Active.
As to `C[N+]1=CNC[C@]1(C)C[C@@H](NC(=O)c1cc(Br)c[nH]1)C(=O)[O-]`, the outcome in test [1] was Active.
As to `C[C@]1(C[C@H](NC(=O)c2cc(Br)c[nH]2)C(=O)O)CNC=N1`, the outcome in test [2] and in test [3] was inactive. The outcome in test [1] was Active.
Consider `O=C(O)C[C@H]1CNC(=O)c2cc(Br)c(Br)n21` [LONGAMIDE B], for which the results for the MIC in test [2] and in test [3] were 55 µg/mL (≈ 156 µM) and 45 µg/mL (≈ 128 µM), respectively.
